Experimental data: ChEMBL document CHEMBL3826915, “Design and comparative anticonvulsant activity assessment of CNS-active alkyl-carbamoyl imidazole derivatives” (Bioorg Med Chem, 2016)

Key:
Homo sapiens = assay: Anticonvulsant activity in patient assessed as improvement in seizure control at 600 mg/day administered up to 1 year; assay type: functional
[1] = Protective index, ratio of TD50 for neurotoxicity in ip dosed albino CF1 mouse to ED50 for anticonvulsant activity in ip dosed 6 Hz current-induced seizure albino CF1 mouse model; conditions: in vivo
Mus musculus [2] = assay: Anticonvulsant activity in ip dosed albino CF1 mouse assessed as protection against maximal electroshock-induced seizures by measuring time to peak effect; assay type: functional
Mus musculus [3] = assay: Anticonvulsant activity in ip dosed AGS-susceptible frings albino CF1 mouse assessed as protection against sound-induced seizures; assay type: functional
[4] = Neurotoxicity in ip dosed albino CF1 mouse assessed as motor impairment by rotorod test; assay type: toxicity, organism-based; conditions: in vivo
[5] = Protective index, ratio of TD50 for neurotoxicity in ip dosed albino CF1 mouse to ED50 for protection against sound-induced seizures in ip dosed AGS-susceptible frings albino CF1 mouse; assay type: toxicity, organism-based; conditions: CF1 (ED50 arm: AGS-susceptible Frings), in vivo, read-out: Ratio TD50/ED50
Mus musculus [6] = assay: Anticonvulsant activity in ip dosed albino CF1 mouse assessed as protection against 6 Hz current-induced seizure by measuring time to peak effect; assay type: functional
[7] = Protective index, ratio of TD50 for neurotoxicity in ip dosed albino CF1 mouse to ED50 for anticonvulsant activity in ip dosed […] metrazol-induced seizure albino CF1 mouse model; assay type: toxicity, organism-based; conditions: in vivo, read-out: Ratio TD50/ED50
Mus musculus [8] = assay: Anticonvulsant activity in ip dosed albino CF1 mouse assessed as protection against 6 Hz current-induced seizures by psychomotor test; assay type: functional
Mus musculus [9] = assay: Anticonvulsant activity in ip dosed albino CF1 mouse assessed as protection against subcutaneous metrazol-induced seizures; assay type: functional
Mus musculus [10] = assay: Anticonvulsant activity in ip dosed albino CF1 mouse assessed as protection against subcutaneous metrazol-induced seizures by measuring time to peak effect; assay type: functional

For O=C(Cn1ccnc1)c1ccc2ccccc2c1 [NAFIMIDONE], the Activity (Homo sapiens) was 33%.

For CCCC(C(N)=O)C(C)CC (stereo unspecified), the selectivity ratio [1] was 1.8, the Time (Mus musculus [2]) was 0.5 h and the ED50 (Mus musculus [3]) was 20 mg/kg. The TD50 [4] was 48 mg/kg, the selectivity ratio [5] was 2.4 and the Time (Mus musculus [6]) was 0.5 h. For the same compound, the selectivity ratio [7] was 2.3, the ED50 (Mus musculus [8]) was 27 mg/kg and the ED50 (Mus musculus [9]) was 21 mg/kg. It also gave a Time (Mus musculus [10]) of 0.5 h.
